Results taken from publication PMC11727334, “A self-immolative Kdn-glycoside substrate enables high-throughput screening for inhibitors of Kdnases” (Glycobiology, 2024).
“Also recorded” adds a separate entry of the source. Where two headings read alike, the source gives them in different places.

Experiments:
AfK [1] = molecular target: T1, AfK (Aspergillus fumigatus, UniProt Q4WQS0); assay: HTS assay of AfK activity using Kdn glycoside 4 (384-well, stop solution); type: biochemical; details: for inhibitory activity verified in repeat assay of HTS hits: TargetMol library pilot screen
T1 construct: AfK was expressed and purified as described by Telford et al; made in house
T1 sequence (Q4WQS0 21-406): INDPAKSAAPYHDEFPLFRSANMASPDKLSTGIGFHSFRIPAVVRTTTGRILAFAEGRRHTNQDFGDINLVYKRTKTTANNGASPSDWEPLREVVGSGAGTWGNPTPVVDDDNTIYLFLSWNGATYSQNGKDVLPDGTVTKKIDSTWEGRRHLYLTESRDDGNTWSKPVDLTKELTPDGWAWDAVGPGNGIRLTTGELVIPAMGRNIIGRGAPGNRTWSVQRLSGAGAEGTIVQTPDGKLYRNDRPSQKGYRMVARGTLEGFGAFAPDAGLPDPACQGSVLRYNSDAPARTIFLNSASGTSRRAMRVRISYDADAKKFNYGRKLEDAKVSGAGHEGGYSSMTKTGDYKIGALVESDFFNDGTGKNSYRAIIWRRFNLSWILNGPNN
Experimental: We next miniaturized our assay for use in a 384-well microplate format by optimizing the quantity of detergent and checking for fluorescent signal stability (Figs 2A,S6 and S7 Supporting Information). In each well, we added a solution of buffer containing AfK (50 nM) and then added a library compound using a pin tool. We included both detergent (0.2% (v/v) Tween-20) and BSA (0.01% BSA) to reduce false positives arising from aggregation prone compounds ([Feng et al. 2007]). We then equilibrated the mixture prior to the addition of substrate 4, and the resultant solution was incubated for 1 h after which stop solution was added. To ensure cyclization was complete, the mixture was allowed to react for 1 h prior to measuring the fluorescence. Candidate hits identified in this primary screen were cherry picked and delivered into a gold plate that was used to confirm hits.
To each well in a 384-well microplate, enzyme (20 μL of a 50 nM stock solution) in reaction buffer (100 mM NaOAc, 0.2% Tween-20, 0.01% BSA, pH 4) was added to a library compound (200 nL of 20 μM TargetMol, 10 μM Chembridge), and this mixture was incubated at rt for 1 h. Then, substrate 4 (20 μL of a 50 μM stock) was added and the resultant mixture was incubated at rt for an additional 1 hr. Following addition of stop solution (40 μL of 1 M aqueous K2CO3, pH ≈ 12) to the mixture the plate was incubated for 1 h at rt. Next, the fluorescence for each well was measured (BioTek Neo 2) using an excitation and an emission wavelength of 360 and 450 nm, respectively. The collected data was analyzed using Prism 7.0. We used the known mechanism-based inactivator 2,3-diF-Kdn (3) as the positive control ([Watts et al. 2006]; [Khazaei et al. 2015]). That is, using 2,3-diFKdn at a concentration of 30 μM, following a 10 min incubation, gives a background signal that equates to >90% inhibition.

[2] = molecular target: Trichophyton rubrum Kdnase (TrK) (Trichophyton rubrum, UniProt A0A178EUH2); assay: Inhibition assay of recombinant TrK using Kdn4MU as substrate; type: biochemical; details: for Hill coefficient: pH 4.0
Trichophyton rubrum Kdnase (TrK), sequence (A0A178EUH2 entry or part of it): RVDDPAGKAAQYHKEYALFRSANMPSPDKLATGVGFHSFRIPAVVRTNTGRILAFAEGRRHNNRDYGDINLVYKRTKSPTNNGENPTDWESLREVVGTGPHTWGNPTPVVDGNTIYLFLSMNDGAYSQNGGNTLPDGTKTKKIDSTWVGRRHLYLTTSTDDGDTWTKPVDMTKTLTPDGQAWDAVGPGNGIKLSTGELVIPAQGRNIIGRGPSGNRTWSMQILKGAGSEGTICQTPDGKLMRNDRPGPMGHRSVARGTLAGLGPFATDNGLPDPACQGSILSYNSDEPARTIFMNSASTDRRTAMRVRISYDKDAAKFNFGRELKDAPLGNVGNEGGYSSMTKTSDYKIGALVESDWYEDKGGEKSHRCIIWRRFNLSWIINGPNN
From the text: (§1) We purchase fresh commercial material for compounds 13 and 14 and performed inhibition assays using recombinant AfK (Methods, Fig. S8, Supporting Information). We determined IC50 values in quadruplicate using 4MU-Kdn as the substrate ([Yeung et al. 2013]). […] We submitted both compounds to a pan-assay interference compounds (PAINS) filter, a compilation of chemical substructures known to show promiscuous biological activities ([Baell and Nissink 2018]). […] We performed standard inhibition assays as described earlier using inhibitor 13 and these recombinant enzymes. […] We also tested inhibitor 13 with the sialidase MvNA, the closest structural homologue to AfK, that is known to cleave a multitude of substrates including Kdn glycosides ([Telford et al. 2011]).
(§2) Each 200 μM reaction mixture was incubated at rt for 2 min prior to the addition of purified sialidase. Inhibitor was added to the reaction mixture and allowed to incubate at rt between 0–60 min in 100 mM sodium acetate buffer pH 4.0 and 0.01% BSA prior to the addition of substrate. The kinetic parameters were determined from initial rate measurements using a substrate concentration of Km/4. The progress of the reaction was continuously monitored for 15 min using a fluorescence spectrophotometer (BioTek Neo 2) and excitation and emission wavelengths of 360 and 450 nm, respectively.

[3] = molecular target: T2, Kdnase produced by A. fumigatus (AfK) (Aspergillus fumigatus, UniProt Q4WQS0); assay: Inhibition assay of recombinant AfK using 4MU-Kdn as substrate; type: biochemical; details: for mode of inhibition (Lineweaver-Burk plots) / fold lower IC50 value than that reported for Kdn2en 2: AfK; for fold lower IC50 value than that reported for Kdn2en 2: Kdn2en value from Yeung et al. 2013; for Hill coefficient: pH 4.0
T2 construct: AfK was expressed and purified as described by Telford et al; made in house
T2 sequence (Q4WQS0 21-406): as the sequence (Q4WQS0 21-406) above
From the text: as §1, §2

[4] = molecular target: Aspergillus terreus Kdnase (AtK) (Aspergillus terreus, UniProt Q0CMX0); assay: Inhibition assay of recombinant AtK using Kdn4MU as substrate; type: biochemical; details: for Hill coefficient: pH 4.0
Aspergillus terreus Kdnase (AtK), sequence (Q0CMX0 entry or part of it): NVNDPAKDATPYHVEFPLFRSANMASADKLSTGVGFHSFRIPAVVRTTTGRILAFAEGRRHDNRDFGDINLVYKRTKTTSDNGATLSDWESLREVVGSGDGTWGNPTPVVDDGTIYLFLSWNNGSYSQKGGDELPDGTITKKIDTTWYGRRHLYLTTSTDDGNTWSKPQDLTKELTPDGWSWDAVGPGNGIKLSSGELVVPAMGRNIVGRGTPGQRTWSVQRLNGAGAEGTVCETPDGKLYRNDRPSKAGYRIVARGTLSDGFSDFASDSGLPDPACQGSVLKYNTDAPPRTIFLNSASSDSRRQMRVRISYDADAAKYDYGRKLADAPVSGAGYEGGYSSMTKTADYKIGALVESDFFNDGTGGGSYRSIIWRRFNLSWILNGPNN
From the text: as §1, §2

neuraminidase MvNA = neuraminidase MvNA (Micromonospora viridifaciens, UniProt Q02834); assay: Inhibition assay of the sialidase MvNA using Kdn4MU as substrate; type: biochemical; details: for Hill coefficient: Table 1, 37 °C, pH 5.5
neuraminidase MvNA, sequence (Q02834 38-647): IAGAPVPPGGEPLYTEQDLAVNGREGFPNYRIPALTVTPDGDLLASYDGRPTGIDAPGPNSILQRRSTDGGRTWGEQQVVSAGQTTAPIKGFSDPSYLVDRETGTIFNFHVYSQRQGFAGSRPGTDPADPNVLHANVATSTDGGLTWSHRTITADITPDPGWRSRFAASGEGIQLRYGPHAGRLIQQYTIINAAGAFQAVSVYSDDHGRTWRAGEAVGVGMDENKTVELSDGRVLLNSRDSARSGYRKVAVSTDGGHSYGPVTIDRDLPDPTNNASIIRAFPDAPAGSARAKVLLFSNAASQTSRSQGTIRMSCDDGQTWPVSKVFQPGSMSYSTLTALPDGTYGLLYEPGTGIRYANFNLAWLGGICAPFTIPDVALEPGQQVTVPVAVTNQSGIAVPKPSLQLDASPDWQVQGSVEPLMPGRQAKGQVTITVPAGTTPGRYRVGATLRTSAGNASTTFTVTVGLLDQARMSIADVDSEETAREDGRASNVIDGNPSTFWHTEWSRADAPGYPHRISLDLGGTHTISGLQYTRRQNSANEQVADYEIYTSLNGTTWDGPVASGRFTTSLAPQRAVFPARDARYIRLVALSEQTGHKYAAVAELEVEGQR
From the text: as §1
as §2, with “Inhibitor was added to the reaction mixture and allowed to incubate at rt between 0–60 min in 100 mM sodium acetate buffer pH 4.0 and 0.01% BSA prior to the addition of substrate.” left out

TrK = assay: Differential scanning fluorimetry (DSF) thermal shift assay, TrK; type: binding, Trichophyton rubrum; details: for Thermal shift (ΔTm) relative to DMSO (2.5%) control: Table S4; for Thermal shift (ΔTm) relative to DMSO (2.5%) control / protein melting temperature (DSF, Table S3): inhibitor 500 µM; for effect on thermal stability of the folded enzyme (DSF, in words): TrK; for protein melting temperature (DSF, Table S3): 100 mM pH 4.0 NaOAc, 5–10 µM enzyme
From the text: (§3) We next used a separate biophysical technique, differential scanning fluorimetry (DSF), to confirm that these compound bind to the various Kdnases. Specifically, we measured protein melting temperatures in the presence of Kdn2en (2) and candidate ligands 13 and 17 (Fig. 3D). […] We repeated this DSF assay on AtK and TrK and we observed similar trends in thermal shifts (Fig. S14 and Tables S2,S3 and S4, Supporting Information). […] Accordingly, further follow up on this compound would need to be pursued with an awareness of this possibility.
(§4) Table S3. Differential scanning fluorometry-based (DSF) assay for inhibitors 2, 13, and 17 binding to Af, At, Tr and MvNA. Protein thermal shifts(ΔTm) using DMSO (2.5%), and inhibitors 2, 13, and 17 at 500 µM against the Kdnase of Af, At, Tr and MvNA. Assay done using 5–10 µM enzyme and 100 mM pH 4.0 NaOAc (pH 5.5 MvNA). A temperature range of 25°C to 95°C was used with a gradient of 0.05°C/sec. […]
(§5) Table S4. Thermal shifts (ΔTm) for stabilization of AfK, AtK, TrK and MvNA on inhibitor binding relative to the DMSO (2.5%) control. […]

AfK [5] = molecular target: T1, AfK; assay: Differential scanning fluorimetry (DSF) thermal shift assay, AfK; type: binding; details: for effect on thermal stability of the folded enzyme (DSF, in words): AfK; for protein melting temperature (DSF, Table S3): inhibitor 500 µM, 100 mM pH 4.0 NaOAc, 5–10 µM enzyme; for ΔTm at 500 µM: read-out: Thermal shift (ΔTm) relative to DMSO (2.5%) control
From the text: as §3, §4, §5

AtK = assay: Differential scanning fluorimetry (DSF) thermal shift assay, AtK; type: binding, Aspergillus terreus; details: for Thermal shift (ΔTm) relative to DMSO (2.5%) control: Table S4; for Thermal shift (ΔTm) relative to DMSO (2.5%) control / protein melting temperature (DSF, Table S3): inhibitor 500 µM; for protein melting temperature (DSF, Table S3): 100 mM pH 4.0 NaOAc, 5–10 µM enzyme
From the text: as §3, §4, §5

MvNA = MvNA (Micromonospora viridifaciens, UniProt Q02834); assay: Differential scanning fluorimetry (DSF) thermal shift assay, MvNA; type: binding; details: inhibitor 500 µM; for ΔTm at 500 µM: Table S4, read-out: Thermal shift (ΔTm) relative to DMSO (2.5%) control; for protein melting temperature (DSF, Table S3): pH 5.5, 5–10 µM enzyme
MvNA, sequence (Q02834 38-647): as above
Experimental: as §4, §5

[6] = Table 1, 37 °C, Kdn4MU substrate, NaOAc 100 mM pH 4.0, 0.01% BSA, read-out: IC50
[7] = Table 1, calculated Ki = IC50/(([S]/Km) + 1), read-out: Ki
[8] = Table S2, values from this work
[9] = Table 1, calculated Ki = IC50/(([S]/Km) + 1)

Structure (SMILES) | Hill coefficient ([2]; Table 1, 37 °C) | inhibitory activity verified in repeat assay of HTS hits (AfK [1]) | mode of inhibition (Lineweaver-Burk plots) [3] | fold lower IC50 value than that reported for Kdn2en 2 [3] [fold] | IC50 [3, 6] [µM] | Hill coefficient ([3]; Table 1, 37 °C) | Ki [3, 7] [µM] | Hill [3, 8] | Hill coefficient ([4]; Table 1, 37 °C) | IC50 (neuraminidase MvNA) [µM] | Hill coefficient (neuraminidase MvNA) | Thermal shift (ΔTm) relative to DMSO (2.5%) control (TrK) | effect on thermal stability of the folded enzyme (DSF, in words) (TrK) | protein melting temperature (DSF, Table S3) (TrK) [°C] | effect on thermal stability of the folded enzyme (DSF, in words) (AfK [5]) | protein melting temperature (DSF, Table S3) (AfK [5]) [°C] | ΔTm at 500 µM (AfK [5]) [°C] | Thermal shift (ΔTm) relative to DMSO (2.5%) control (AtK) | protein melting temperature (DSF, Table S3) (AtK) [°C] | ΔTm at 500 µM (MvNA) [°C] | other results
O=C(O)[C@]1(F)O[C@@H]([C@H](O)[C@H](O)CO)[C@H](O)[C@@H](O)[C@H]1F [compound 3, 2,3-diF-α-Kdn] |  |  |  |  |  |  |  |  |  |  |  |  |  |  |  |  |  |  |  |  | inhibition at 30 µM (AfK [1]; 30 μM, 10 min incubation): > 90%; activity at 30 µM (AfK [1]; 30 μM, reacted with AfK for 10 min, read-out: fluorescent signal relative to the uninhibited sample): < 10%; Hill Slope (AfK [1]; following incubation (10 min)): -1.2; IC50 (AfK [1]; following incubation (10 min), read-out: apparent IC50): 3.1 µM
O=C(/C=C/c1ccc(O)c2c1[C@H](C(=O)O)[C@@H](c1ccc(O)c(O)c1)O2)O[C@H](Cc1ccc(O)c(O)c1)C(=O)O [compound 13, lithospermic acid] | −0.80 | inhibit AfK | competitive inhibitors | 24 | 22.8 ± 1 | −1.32 | 18.7 | –1.32 | −1.36 | 347 ± 2 | −0.90 | +13.7 ± 0.1 °C | does stabilize TrK | 48.4 ± 0.1 | stabilizes neither AfK; also recorded: no effect on the stability of AfK | 51.4 ± 0.1 | -0.1 | –0.8 ± 0.1 °C | 51.1 ± 0.1 | 1 | IC50 [2]: 11.8 ± 0.1 µM; mode of inhibition ([2]; TrK): competitively inhibited; time-dependent inhibition ([3]; time points 0, 10 and 60 mins, 50 µM Kdn4MU 1 substrate): no time dependent changes in calculated IC50 values; IC50 [4]: 14.4 ± 0.07 µM; mode of inhibition ([4]; AtK): competitively inhibited; protein melting temperature (DSF, Table S3) (MvNA): 54.9 ± 0.4 °C
CC(C)(C)c1cc(C=C(C#N)C#N)cc(C(C)(C)C)c1O [compound 14, Tyrphostin A9, reference compound] |  | inhibit AfK | competitive inhibitors |  |  |  |  | –0.92 |  |  |  |  |  |  |  |  |  |  |  |  | IC50 [3]: 65.8 ± 1.7 µM; Ki [3]: 58.4 µM
O=C1NC[C@@]2(C(=O)O)CN(Cc3ccc(C4CCCCC4)s3)C[C@@H]12 [compound 17] | −1.11 |  | competitive inhibitor | 5 | 115 ± 2 | −0.81 | 74.7 | –0.81 | −0.88 | 6.6 ± 0.6 | −0.89 | +16.2 ± 0.1 °C | stabilizes all three Kdnases | 50.9 ± 0.1 | stabilizes all three Kdnases; also recorded: positive unfolding temperature shifts | 54.6 ± 0.1 | 3.1 | +3.5 ± 0.1 °C | 55.4 ± 0.1 | 5.2 | IC50 [2, 6]: 93.3 ± 0.8 µM; Ki [2, 9]: 73.3 µM; IC50 ([3]; Table S2, Kdn4MU substrate, sodium acetate 100 mM pH 4.0, 0.01% BSA, 37 C, values from this work, read-out: IC50): 115 ± 2 µM; inhibition of AfK in standard inhibition assay ([3]; purchased compounds, 4MU-Kdn 1 as substrate): inhibited AfK; IC50 [4, 6]: 50 ± 1.2 µM; Ki [4, 9]: 38.5 µM; effect on thermal stability of the folded enzyme (DSF, in words) (AtK; AtK): stabilizes all three Kdnases; protein melting temperature (DSF, Table S3) (MvNA): 59.1 ± 0.1 °C
